Data from US9586967B2, “Pyrrolo pyrimidine derivative” (ONO PHARMACEUTICAL CO., LTD., priority 2013, dated 2017).
Where a name gives a salt, the structure may show the parent alone.

Tests used:
Ba/F3 Axl = assay: Measurement of proliferation suppression rate using mouse pro-B cell line (Ba/F3 Axl) stably expressing Axl; assay type: cell-based; conditions: BaF3, Ba/F3 Axl cells, 48 hours, CELLTITER-GLO, read-out: Proliferation suppression, value of 50% inhibition rate (IC50 value)
Experimental: Measurement of Proliferation Suppression Rate by Using Mouse Pro-B Cell Line (Ba/F3 Axl) Stably Expressing Axl
A 0.1 mmol/L DMSO solution of the test compound was dispensed into a 96-well plate, and further a 3-fold dilution series was prepared using DMSO. DMSO solutions of test compounds, having various concentrations, were further 500-fold diluted with a RPMI1640 medium (containing 10% HI-FBS and 1% penicillin) and a diluted solution of the test compound having […] with respect to the final concentration was prepared. In each well of the 96-well plate (BD Biosciences) for measurement, 50 μL of a RPMI medium was added to the Blank group, 50 μL of a RPMI medium containing 0.2% DMSO was added to the medium group, and 50 μL of the diluted solution of the test compound was added to the test compound group, respectively. Ba/F3 Axl was diluted with a medium to have a density of 2×10^5 cells/mL to prepare a cell suspension. In each well of the 96-well plate for measurement, 50 μL each of the RPMI medium was added to the Blank group, and 50 μL each of the cell suspension was added to the medium group and the test compound group, respectively, and the groups were stood still at 37° C. at 5% CO2 for 48 hours. After standing still, Relative Light Unit (RLU) was measured by using CELLTITER-GLO (registered trademark) LUMINESCENT CELL VIABILITY ASSAY (Promega). The measurement was carried out according to the attached instruction. To each well, 100 μL each of light-emitting solution was added. The plate was stirred at room temperature for 3 min and then stood still at room temperature with light shielded for 10 minutes, and RLU was measured by using Microplate Reader (SpectraMax M5e, Molecular Devices). The average values of RLU of the Blank group and the medium group were respectively calculated, and the proliferation suppression rate of the test compound group was calculated. Proliferation suppression rate (%)={1−(RLU of test compound group−A)/(B−A)}×100 [Math. 2] A: Average value of RLU of Blank group B: Average value of RLU of medium group […]

Axl enzyme = biological target: T1, Axl enzyme (Homo sapiens, UniProt P30530); assay: Measurement of Axl inhibitory activity (in vitro test, LanthaScreen TR-FRET); assay type: biochemical; conditions: Fluorescein-Poly GT substrate, ATP, read-out: Axl enzyme inhibitory activity, value of 50% inhibition rate (IC50 value)
T1 sequence (P30530 26-894): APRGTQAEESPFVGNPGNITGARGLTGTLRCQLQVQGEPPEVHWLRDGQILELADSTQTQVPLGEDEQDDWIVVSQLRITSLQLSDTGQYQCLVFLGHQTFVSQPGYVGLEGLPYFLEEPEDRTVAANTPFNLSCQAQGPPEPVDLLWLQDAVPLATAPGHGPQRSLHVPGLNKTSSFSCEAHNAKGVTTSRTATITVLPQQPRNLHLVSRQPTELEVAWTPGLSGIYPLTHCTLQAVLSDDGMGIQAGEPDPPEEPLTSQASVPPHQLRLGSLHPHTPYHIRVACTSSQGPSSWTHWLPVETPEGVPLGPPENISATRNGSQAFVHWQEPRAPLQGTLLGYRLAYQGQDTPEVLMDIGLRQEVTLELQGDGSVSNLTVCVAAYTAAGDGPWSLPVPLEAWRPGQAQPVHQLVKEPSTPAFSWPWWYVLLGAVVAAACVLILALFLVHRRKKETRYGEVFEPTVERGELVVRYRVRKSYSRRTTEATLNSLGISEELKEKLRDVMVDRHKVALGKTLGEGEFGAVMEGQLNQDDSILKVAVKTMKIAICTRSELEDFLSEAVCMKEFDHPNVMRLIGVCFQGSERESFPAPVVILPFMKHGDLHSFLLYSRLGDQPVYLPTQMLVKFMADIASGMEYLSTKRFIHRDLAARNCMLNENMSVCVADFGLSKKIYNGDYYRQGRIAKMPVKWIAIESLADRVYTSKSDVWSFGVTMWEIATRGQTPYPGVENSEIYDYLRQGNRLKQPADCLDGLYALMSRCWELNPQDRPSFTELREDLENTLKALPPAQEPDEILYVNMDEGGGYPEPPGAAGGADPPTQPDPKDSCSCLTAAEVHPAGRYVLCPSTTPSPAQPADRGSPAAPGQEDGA
Experimental: Measurement of Axl Inhibitory Activity (In Vitro Test)
The Axl enzyme inhibitory activity was measured by using LanthaScreen (registered trademark) system (Invitrogen) based on the attached instruction. The reagents used are shown below.
Reaction buffer solution: A solution containing 50 mmol/L HEPES (pH7.5), 0.01% Brij35, 10 mmol/L MgCl2 and 1 mmol/L EGTA was prepared by using purified water.
Test substance solution: A solution containing a test compound of 5-fold concentration with respect to the final concentration was prepared by 20-fold diluting a DMSO solution of the test compound of each concentration with the reaction buffer solution.
Enzyme solution: A solution containing 400 ng/mL Axl enzyme was prepared by using the reaction buffer solution.
Substrate solution: A solution containing 45 μmmol/L ATP and 500 nmmol/L Fluorescein-Poly GT (Invitrogen) was prepared by using the reaction buffer solution.
Detection solution: A solution containing 20 mM EDTA and 4 nM PY20 (Invitrogen) was prepared by using Dilution B (Invitrogen).
A 10 mmol/L DMSO solution of the test compound was dispensed into a 96-well plate (Nunc), and, furthermore, a 3-fold dilution series was prepared using DMSO. In each well of the 96-well plate for measurement, 5 μL each of the reaction buffer solution containing DMSO was added to a Blank group and a medium group, and 5 μL of the test substance solution was added to the test substance group, respectively. […] After standing still, fluorescence intensity at 520 nm and 495 nm at the time of irradiation with exciting light of 340 nm was measured by using Analyst GT (Molecular Devices). The phosphorylation of the artificial substrate was quantified by Time-resolved Fluorescence Resonance Energy Transfer (TR-FRET). The TR-FRET ratio was calculated by dividing 520 nm fluorescence signal by 495 nm fluorescence signal for each well, and the inhibition rate (%) in the test compound group was calculated based on the following mathematical formula. […]

Row | IC50 (Ba/F3 Axl) [nM] | IC50 (Axl enzyme) [nM] | SMILES
1 | 0.8 | 1.7 | CC#CC(=O)NCc1ccc(C(=O)Nc2ccc(-c3cn(C)c4ncnc(N)c34)cc2)c(=O)n1-c1ccccc1 [Example 26, N-[4-(4-amino-7-methyl-7H-pyrrolo[2,3-d]pyrimidine-5-yl)phenyl]-6-[(2-butynoylamino)methyl]-2-oxo-1-phenyl-1,2-dihydro-3-pyridinecarboxamide]
2 | 10.6 | 8 | Cn1cc(-c2ccc(NC(=O)c3cc(C(F)(F)F)cn(-c4ccccc4)c3=O)cc2)c2c(N)ncnc21 [Example 30, N-[4-(4-amino-7-methyl-7H-pyrrolo[2,3-d]pyrimidin-5-yl)phenyl]-2-oxo-1-phenyl-5-(trifluoromethyl)-1,2-dihydro-3-pyridinecarboxamide trifluoroacetate]
3 | 7 | 9.7 | Cn1cc(-c2ccc(NC(=O)c3cc4c(n(-c5ccccc5)c3=O)CC3(CC3)CC4=O)nc2)c2c(N)ncnc21 [Example 45(24), N-[5-(4-amino-7-methyl-7H-pyrrolo[2,3-d]pyrimidin-5-yl)-2-pyridinyl]-2′,5′-dioxo-1′-phenyl-2′,5′,6′,8′-tetrahydro-1′H-spiro[cyclopropane-1,7′-quinoline]-3′-carboxamide]
